Data: patent US20090029932A1, “Identification and use of miRNAs for differentiating myeloid leukemia cells” (Centre National De La Recherche Scientifique (CNRS), priority 2004, published 2009)

Legend:
miRNAs in NB4 cells = experiment: Northern blot of miRNA expression in NB4 cells; assay type: cell-based, human; conditions: 1 μM ATRA
Description: (§1) The total RNA was extracted from the cells of the NB4 cell lines treated or not treated with 1 μM of ATRA, at the same time intervals as in example 1, and using the Tri-Reagent® kit (SIGMA) according to the manufacturer's instructions. The analysis of the low molecular weight RNA by northern blot was carried out as described in LLAVE et al. (2002, previously cited). All of the northern blot experiments were carried out in double. DNA oligonucleotides complementary to the sequences of the miRNAs analysed were labelled at their end with ATP γ-P^32 using the polynucleotide kinase T4 (NEW ENGLAND BIOLABS) by following the manufacturer's instructions.
The quantity of RNA in each well was controlled by coloration of the gel with ethidium bromide and visualisation of the ribosomal RNA (rRNA) under UV light. […] In addition, the miRNAs that seem to belong to a same precursor effectively present a similar expression profile over time.
To formally establish the correlation between the expression of the different miRNAs identified and the differentiation in granulocytes, cells from NB4 and NB4-LR1 cell lines were cultivated in the presence or absence of ATRA as described in example 1. Northern blot experiments were carried out according to the protocol described in example 2. The different northern blot experiments were carried out with probes complementary to the miRNAs miR-23a, miR-17, miR-18, miR-19a, miR-19b, miR-20, miR-23 and miR-92.
To confirm the correlation between the expression of different miRNAs, and in particular miR-17, miR-18, miR-19a, miR19b, miR-20 and miR-92 and the differentiation in granulocytes, cells from NB4 and NB4-LR1 cell lines were cultivated in the presence or absence of ATRA/cAMP as described in example 1. Following an ATRA/cAMP co-treatment, the differentiation of the cells in the NB4-LR1 cell line in granulocytes is restored. Northern blot experiments were carried out according to the protocol described in example 2. […]

NB4-LR2 cell line = conditions: truncated PML-RARa; cited from earlier work
NB4-LR1 cell line = experiment: Granulocytic differentiation, NBT reduction test, NB4-LR1 cells; assay type: cell-based, human; conditions: for percentage of cells differentiated during the treatment: 100 μM 8-CPT-cAMP where added, NBT positive cells
Description: (§2) The cells from cell line NB4 and cell line NB4-LR1, resistant at maturation only by ATRA, were grown as described in LANOTTE et al. (1991, previously cited) and in RUCHAUD et al. (Proc. Natl. Acad. Sci., vol. 91, p: 8428-8432, 1994). The cells were then treated for 4 days in the presence of 1 μM of all-trans retinoic acid (ATRA, SIGMA-ALRICH) alone or with the addition of 100 μM of an cAMP analogue (8-CPT-cAMP, SIGMA-ALRICH). The cell proliferation was determined on a daily basis by counting the cells using a cell counter (BECKMAN COULTER FRANCE SA) from day 0, following the addition of the therapeutic agent, to day 4.
(§3) In parallel, the evolution of the differentiation was determined on a daily basis throughout the treatment. The granulocytic differentiation was simultaneously evaluated according to the morphological and biochemical criteria. The morphological analysis was carried out after May-Grünwald colouring. The biochemical analysis was carried out by a coloration test based on the reduction of NBT (nitro blue tetrazolium) that is used to measure the oxidative ability of the mature cells to reduce the NBT colorant. For this purpose, 0.5 to 1×10^5 cells were centrifuged for 5 minutes at 190 g. The cell sediment was then recovered in 200 μl of saline phosphate buffer (PBS) with the addition of NBT (SIGMA ALDRICH, 1 mg/ml) and PMA (Phorbol 12-myristate 13-acetate, SIGMA, 10^−7M) and then was incubated for 20 minutes at 37° C. The cells were then collected on slides by Cytospin® centrifugation, then observed by phase contrast microscopy. A minimum of 200 cells per slide were examined under light microscope and a differentiation percentage was calculated on the basis of the number of positive NBT cells.

miR23a in NB4-LR2 cells = experiment: Northern blot of miR23a expression in NB4-LR2 cells; assay type: cell-based, human; conditions: ATRA
miRNAs in NB4-LR1 cells = experiment: Northern blot of miRNA expression in NB4-LR1 cells; assay type: cell-based, human; conditions: NB4-LR1 compared with NB4; ATRA
Description: as §1
To formally establish the correlation between the expression of the different miRNAs identified and the differentiation in granulocytes, cells from NB4 and NB4-LR1 cell lines were cultivated in the presence or absence of ATRA as described in example 1. Northern blot experiments were carried out according to the protocol described in example 2. The different northern blot experiments were carried out with probes complementary to the miRNAs miR-23a, miR-17, miR-18, miR-19a, miR-19b, miR-20, miR-23 and miR-92. […]

NB4 cell line = experiment: Granulocytic differentiation, NBT reduction test, NB4 cells; assay type: cell-based, human; conditions: for percentage of cells differentiated during the treatment: 100 μM 8-CPT-cAMP where added, NBT positive cells
Description: as §2, §3

## CC1=C(/C=C/C(C)=C/C=C/C(C)=C/C(=O)O)C(C)(C)CCC1 [ATRA, all-trans retinoic acid]
miRNAs in NB4 cells; 0 to 4 days
  expression profile of miR-19b and miR-92, time of maximum: maximum of expression on day three of treatment
  level of expression of miR-23a: increases over time
miRNAs in NB4 cells; against non treated cells
  level of expression of miR-19b and miR-92 on day 4 of treatment: lower than their level of expression in the non treated cells
NB4-LR2 cell line
  sensitivity of the cells to induced differentiation: insensitive
NB4-LR1 cell line
  differentiation of the cells (in words): only the cells in the NB4 cell line differentiate
NB4-LR1 cell line; day 0, 1 μM ATRA
  percentage of cells differentiated during the treatment: 0%
NB4-LR1 cell line; day 1, 1 μM ATRA
  percentage of cells differentiated during the treatment: 0%
NB4-LR1 cell line; day 2, 1 μM ATRA
  percentage of cells differentiated during the treatment: 2%
NB4-LR1 cell line; day 3, 1 μM ATRA
  percentage of cells differentiated during the treatment: 5%
NB4-LR1 cell line; day 4, 1 μM ATRA
  percentage of cells differentiated during the treatment: 5%
miR23a in NB4-LR2 cells
  expression of miR23a: an increase in the expression of miR23a is not observed
miRNAs in NB4-LR1 cells
  expression profile of miR-17, miR-18, miR-19a, miR19b, miR-20 and miR-92: different expression profile between the NB4 and NB4-LR1 cells
NB4 cell line
  differentiation of the cells (in words): differentiate
NB4 cell line; day 0, 1 μM ATRA
  percentage of cells differentiated during the treatment: 0%
NB4 cell line; day 1, 1 μM ATRA
  percentage of cells differentiated during the treatment: 6%
NB4 cell line; day 2, 1 μM ATRA
  percentage of cells differentiated during the treatment: 20%
NB4 cell line; day 3, 1 μM ATRA
  percentage of cells differentiated during the treatment: 43%
NB4 cell line; day 4, 1 μM ATRA
  percentage of cells differentiated during the treatment: 95%
